In PMC9229843, “Cancer-Related Somatic Mutations in Transmembrane Helices Alter Adenosine A1 Receptor Pharmacology” (Molecules, 2022):
Changes are numbered by the printed parent chain.

Experiments:
hA1AR L134F^4.52 = target: T1, hA1AR L134F^4.52 (Homo sapiens, UniProt P30542, L134F); settings: [35S]GTPγS; ratio over basal activity of wild type hA1AR
T1 sequence (P30542 1-326 L134F): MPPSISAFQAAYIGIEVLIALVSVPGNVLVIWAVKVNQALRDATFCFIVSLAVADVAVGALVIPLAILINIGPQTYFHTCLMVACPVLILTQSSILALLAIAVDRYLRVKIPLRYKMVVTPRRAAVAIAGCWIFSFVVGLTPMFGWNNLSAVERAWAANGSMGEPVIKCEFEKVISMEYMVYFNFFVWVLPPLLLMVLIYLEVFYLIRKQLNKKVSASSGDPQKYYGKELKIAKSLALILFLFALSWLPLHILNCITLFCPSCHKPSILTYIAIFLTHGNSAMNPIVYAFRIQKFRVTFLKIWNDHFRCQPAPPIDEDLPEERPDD
Procedure: (§1) Transient transfection of CHO cells with wild type or mutated hA1AR plasmid constructs was performed using a polyethylenimine (PEI) method. Cells were seeded in 10-cm culture dishes to achieve 50–60% confluency 24 h prior to transfection. On the day of transfection, cells were transfected with a PEI: DNA ratio of 3:1 and a plasmid DNA amount of 10 μg/dish. Moreover, 24 h post-transfection, the medium was refreshed, and 48 h after transfection, cells were collected and membranes were prepared as previously described. Membranes were aliquoted in 250 or 100 μL and stored at −80 °C. Membrane protein concentrations were determined using the BCA method.
(§2) [^35S]GTPγS binding assays were adapted from a previously published method. […] Then, 20 µL of [^35S]GTPγS (final concentration of 0.3 nM) was added to each well, followed by 90 min of incubation at 25 °C. Incubations were terminated and filter-bound radioactivity was measured as described above.
(§3) All experimental data were analyzed by GraphPad Prism 7.0 or 8.0 (GraphPad Software Inc., San Diego, CA, USA). Data from yeast liquid growth and [^35S]GTPγS binding assays were analyzed by non-linear regression using “log (agonist) vs. response (three parameters)” or “log (inhibitor) vs. response (three parameters)” to obtain potency (EC50), inhibitory potency (IC50), and efficacy (Emax or Imax) values. The radioligand displacement curves were obtained from a statistically preferred one-site or two-site binding model. pKi values were calculated from pIC50 values using the Cheng–Prusoff equation, where KD values were obtained from the homologous competition assays from this study and calculated by non-linear regression using “one site–homologous” [62].

hA1AR H78L^3.23 = target: T2, hA1AR H78L^3.23 (Homo sapiens, UniProt P30542, H78L); settings: [35S]GTPγS; ratio over basal activity of wild type hA1AR
T2 sequence (P30542 1-326 H78L): T1 sequence (P30542 1-326 L134F) with H78L, F134L
Procedure: as §1, §2, §3

hA1AR G279S^7.44 = target: T3, hA1AR G279S^7.44 (Homo sapiens, UniProt P30542, G279S); settings: [35S]GTPγS; ratio over basal activity of wild type hA1AR
T3 sequence (P30542 1-326 G279S): T1 sequence (P30542 1-326 L134F) with F134L, G279S
Procedure: as §1, §2, §3

wild type hA1AR = target: T4, wild type hA1AR (Homo sapiens, UniProt P30542); settings: [35S]GTPγS; ratio over basal activity of wild type hA1AR
T4 sequence (P30542 1-326): T1 sequence (P30542 1-326 L134F) with F134L
Procedure: as §1, §2, §3

hA1AR S246T^6.47 = target: T5, hA1AR S246T^6.47 (Homo sapiens, UniProt P30542, S246T); settings: [35S]GTPγS; ratio over basal activity of wild type hA1AR
T5 sequence (P30542 1-326 S246T): T1 sequence (P30542 1-326 L134F) with F134L, S246T
Procedure: as §1, §2, §3

hA1AR W188C^5.46 = target: T6, hA1AR W188C^5.46 (Homo sapiens, UniProt P30542, W188C)
T6 sequence (P30542 1-326 W188C): T1 sequence (P30542 1-326 L134F) with F134L, W188C
Procedure: as §1, §2, §3

Compound `OC[C@H]1O[C@@H](n2cnc3c(NC4CCCC4)ncnc32)[C@H](O)[C@@H]1O` [CPA, N^6-cyclopentyladenosine] has an Emax (hA1AR L134F^4.52) of 1.48 ± 0.24, an Emax (hA1AR H78L^3.23) of 1.40 ± 0.10 and an Emax (hA1AR G279S^7.44) of 1.57 ± 0.20. The Emax (wild type hA1AR) was 1.48 ± 0.13, the Emax (hA1AR S246T^6.47) was 1.21 ± 0.10 and the Emax (hA1AR W188C^5.46; [35S]GTPγS, ratio over basal activity of wild type hA1AR) was 1.94 ± 0.02. For the same compound, the “decrease in the potency value versus wild type” value (hA1AR W188C^5.46; mammalian system) was 10 fold.
